# Test results: PubChem BioAssay (NCI)
#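 Values below derive from 48-hour exposures of cells grown in 96-well plates, with endpoints linearly interpolated between the two concentrations bracketing the appropriate inhibition level. Here, GI50 denotes the concentration required for 50% inhibition of growth. TGI denotes the concentration required for complete inhibition of growth.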
# How the values were obtained:
# Assay in all cases: NCI-60 cell line screen, 48 h
# 786-0 renal = system: 786-0 renal
# EKVX NSCLC = system: EKVX NSCLC
# OVCAR-3 ovarian = system: OVCAR-3 ovarian
# OVCAR-4 ovarian = system: OVCAR-4 ovarian
# SK-MEL-28 melanoma = system: SK-MEL-28 melanoma
# U251 CNS = system: U251 CNS
# SK-MEL-5 melanoma = system: SK-MEL-5 melanoma
# BT-549 breast = system: BT-549 breast
# HS 578T breast = system: HS 578T breast
# MCF7 breast = system: MCF7 breast
Structure (SMILES),TGI (786-0 renal) [µM],TGI (EKVX NSCLC) [µM],TGI (OVCAR-3 ovarian) [µM],TGI (OVCAR-4 ovarian) [µM],TGI (SK-MEL-28 melanoma) [µM],TGI (U251 CNS) [µM],TGI (SK-MEL-5 melanoma) [µM],GI50 (786-0 renal) [µM],GI50 (EKVX NSCLC) [µM],GI50 (OVCAR-3 ovarian) [µM],GI50 (OVCAR-4 ovarian) [µM],GI50 (SK-MEL-28 melanoma) [µM],GI50 (SK-MEL-5 melanoma) [µM],GI50 (U251 CNS) [µM],GI50 (BT-549 breast) [µM],TGI (BT-549 breast) [µM],GI50 (HS 578T breast) [µM],TGI (HS 578T breast) [µM],TGI (MCF7 breast) [µM],GI50 (MCF7 breast) [µM]
Oc1ccccc1C=NCc1ccco1,> 100,> 100,> 100,> 100,> 100,> 100,–,–,–,–,–,–,–,–,–,–,–,–,–,–
N#Cc1c(NN)nc(NN)c(C#N)c1-c1ccccc1,> 100,> 100,> 100,> 100,> 100,–,> 100,–,–,–,–,–,–,–,–,–,–,–,–,–
N/C(=C\c1ccc(OCc2ccccc2)c(OCc2ccccc2)c1[N+](=O)[O-])C(=O)O,> 100,> 100,> 100,–,> 100,> 100,> 100,–,–,–,–,–,–,–,–,–,–,–,–,–
Cn1c(=O)nc2n(-c3cccc(Br)c3)c3ccccc3nc-2c1=O,16.7,13.3,5.94,14.6,–,19.2,3.41,–,–,–,–,–,–,–,–,–,–,–,–,–
CCCCCCCCCCCCCC(=O)CC(=O)c1c(O)cccc1O,> 100,68.8,37.3,> 100,> 100,> 100,> 100,–,–,–,–,–,–,–,–,–,–,–,–,–
CCC/C(=N/NC(=O)C(N)=O)C(CC)C(=O)CCC(=O)N(Cc1ccccc1)Cc1ccccc1 (stereo not given),> 100,> 100,> 100,–,> 100,> 100,> 100,–,–,–,–,–,–,–,–,–,–,–,–,–
O=c1cc2ccccc2nn1Cc1cccc(Cl)c1,> 100,> 100,> 100,> 100,> 100,> 100,> 100,–,–,–,–,–,–,–,–,–,–,–,–,–
CC1(CO)OC(n2cc(C(=O)NC(=O)OCc3ccccc3)c(=O)[nH]c2=O)CC1O (stereo not given),> 100,–,> 100,–,> 100,> 100,> 100,–,–,–,–,–,–,–,–,–,–,–,–,–
CC(=O)[CH-]C(=O)c1ccccc1.CC(=O)[CH-]C(=O)c1ccccc1.CC1(C)C2CCC1(C)C([O-])C2.CC1(C)C2CCC1(C)C([O-])C2.[Ti+4],> 100,> 100,> 100,> 100,> 100,> 100,39.1,25.9,69.6,59.3,97.3,34.1,21.9,40.4,–,–,–,–,–,–
Cc1ccccc1C(=O)c1ccccc1O,> 100,> 100,> 100,> 100,> 100,> 100,> 100,–,–,–,–,–,–,–,–,–,–,–,–,–
COC(=O)N1CCc2c(nc(N(C)CCO)[nH]c2=O)C1,> 100,> 100,> 100,–,> 100,> 100,> 100,–,–,–,–,–,–,–,–,–,–,–,–,–
CCOc1ccc(-c2nonc2NC(=O)c2cccc(C)c2)cc1OCC,> 100,–,> 100,> 100,> 100,> 100,> 100,49.7,–,> 100,> 100,> 100,> 100,30.5,> 100,> 100,> 100,> 100,–,–
CN(C)c1ccc([O][Bi]([Cl])[Cl])cc1,> 100,> 100,> 100,> 100,> 100,> 100,> 100,> 100,> 100,> 100,> 100,> 100,29.6,> 100,–,–,–,–,–,–
COC(=O)/C([Se]c1c(C)cc(C)cc1C)=C(\[Se]c1c(C)cc(C)cc1C)C(=O)OC,> 100,> 100,> 100,> 100,–,> 100,> 100,–,–,–,–,–,–,–,–,–,–,–,–,–
O=S1CCS(=O)CCS(=O)CC1 (stereo not given),> 100,> 100,> 100,> 100,> 100,> 100,> 100,–,–,–,–,–,–,–,–,> 100,–,–,> 100,–
COC(=O)C(=O)OC1(C(C)=O)CC2(c3ccccc3)OC1(c1ccccc1)c1ccccc12 (stereo not given),26.9,42,27.9,51.1,–,30.5,28.8,–,–,–,–,–,–,–,–,–,–,–,–,–
Clc1ccc2c(c1)C1C(CO2)C(c2ccccc2)=NN1c1ccccc1 (stereo not given),> 100,68.6,> 100,–,> 100,> 100,–,–,–,–,–,–,–,–,–,–,–,–,–,–
O=C1/C(=C/c2ccccc2)CN(C(=O)c2cccnc2)C/C1=C\c1ccccc1,4.57,11.1,1.71,13.8,6.37,2.41,3.68,2.07,2.86,0.505,3.3,2.39,1.8,0.435,–,–,5.56,41.5,1.46,0.322
